In patent US7335659B2, “Substituted 10-aryl-11H-benzo[b]fluorenes and 7-aryl-5, 6-dihydro-benzo[a]anthracenes for selective effects on estrogen receptors” (N.V. Organon, priority 2002, dated 2008):

Each molecule was assayed against T1, human estrogen receptor β receptor (hERβ) (Homo sapiens, UniProt Q92731) (assay: Antiestrogenic activity in in vitro bioassay with recombinant CHO cells co-transfected with hERβ, rat oxytocin promoter and luciferase reporter gene). Details: potency ratio relative to standard ICI 164.384; inhibition of estradiol-induced luciferase transactivation via hERβ in CHO cells.
T1 construct: expressed in transfected cells; host or cells: Chinese hamster ovary (CHO) cells, stably co-transfected with hERβ, rat oxytocin promoter and luciferase reporter gene
T1 sequence (Q92731 whole entry): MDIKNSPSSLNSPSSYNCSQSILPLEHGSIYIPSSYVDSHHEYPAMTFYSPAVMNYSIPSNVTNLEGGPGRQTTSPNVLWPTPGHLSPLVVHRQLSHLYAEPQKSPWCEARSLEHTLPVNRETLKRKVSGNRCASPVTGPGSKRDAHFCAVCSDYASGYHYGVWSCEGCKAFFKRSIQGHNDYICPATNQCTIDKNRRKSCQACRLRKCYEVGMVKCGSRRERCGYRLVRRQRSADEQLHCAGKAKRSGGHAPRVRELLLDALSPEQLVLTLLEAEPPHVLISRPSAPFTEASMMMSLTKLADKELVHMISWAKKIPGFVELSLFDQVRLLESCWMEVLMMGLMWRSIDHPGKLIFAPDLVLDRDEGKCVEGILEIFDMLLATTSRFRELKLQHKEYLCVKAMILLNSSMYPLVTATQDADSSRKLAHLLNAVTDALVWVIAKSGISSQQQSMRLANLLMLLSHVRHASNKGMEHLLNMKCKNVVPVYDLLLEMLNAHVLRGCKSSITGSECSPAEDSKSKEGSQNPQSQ
Assay type: cell-based
Method: The estrogenic and antiestrogenic activity of compounds is determined in an in vitro bioassay with recombinant Chinese hamster ovary (CHO) cells stably co-transfected with the human estrogen receptor α (hERα) or β receptor (hERβ), the rat oxytocin promoter (RO) and the luciferase reporter gene (LUC). The estrogenic activity (potency ratio) of a test compound to stimulate the transactivation of the enzyme luciferase mediated via the estrogen receptors hERα or hERβ is compared with the standard estrogen estradiol. The antiestrogenic activity (potency ratio) of a test compound to inhibit the transactivation of the enzyme luciferase mediated via the estrogen receptors hERα or hERβ by the estrogen estradiol is compared with the standard ICI 164.384 (=(7α, 17β)-N-butyl-3,17-dihydroxy-N-methylestra-1,3,5(10)-triene-7-undecanamide).

Question: With `Oc1ccc2c(c1)Cc1c-2cc2ccc(O)cc2c1-c1ccc(-c2ccccc2)cc1` [Compound 5h] as the molecule, how does the ERβ antagonism read?
Answer: + (>5% (relative to ICI): +)

Question: For `Oc1ccc2c(c1)Cc1c-2cc2ccc(O)cc2c1-c1cccc(F)c1` [Compound 5j], which ERβ antagonism is on record?
Answer: + (>5% (relative to ICI): +)

Question: `Oc1ccc2c(c1)Cc1c-2cc2ccc(O)cc2c1-c1ccc(-c2ccccc2)c(F)c1` [Compound 5s] was tested. Which ERβ antagonism did it give?
Answer: + (>5% (relative to ICI): +)

Question: With `Oc1ccc2c(c1)Cc1c-2cc2ccc(O)cc2c1-c1ccc(OCCN2CCCCC2)cc1` [Compound 9] as the molecule, how does the ERβ antagonism read?
Answer: ++ (>40%: ++)

Question: How did the ERβ antagonism turn out when `Oc1ccc2c(c1)Cc1c-2cc2ccc(O)cc2c1-c1ccc(Cl)cc1` [Compound 5a] was run?
Answer: + (>5% (relative to ICI): +)

Question: `Oc1ccc2c(c1)Cc1c-2cc2ccc(O)cc2c1-c1ccc(Cl)c(Cl)c1` [Compound 5m] was tested. Which ERβ antagonism did it give?
Answer: ++ (>40%: ++)

Question: Which ERβ antagonism does the source give for `Oc1ccc2c(c1)Cc1c-2cc2ccc(O)cc2c1-c1ccc(F)c(Cl)c1` [Compound 5f] here?
Answer: + (>5% (relative to ICI): +)

Question: Which ERβ antagonism does the source give for `CC(C)c1cccc(-c2c3c(cc4ccc(O)cc24)-c2ccc(O)cc2C3)c1` [Compound 5q] here?
Answer: + (>5% (relative to ICI): +)

Question: How did the ERβ antagonism turn out when `Oc1ccc2c(c1)Cc1c-2cc2ccc(O)cc2c1-c1cccc(Cl)c1` [Compound 5n] was run?
Answer: + (>5% (relative to ICI): +)

Question: Which ERβ antagonism does the source give for `COc1ccc(-c2c3c(cc4ccc(O)cc24)-c2ccc(O)cc2C3)cc1` [Compound 5k] here?
Answer: + (>5% (relative to ICI): +)

Question: For `Oc1ccc2c(c1)Cc1c-2cc2ccc(O)cc2c1-c1ccc(F)cc1` [Compound 5l], which ERβ antagonism is on record?
Answer: ++ (>40%: ++)

Question: `Oc1ccc2c(c1)Cc1c-2cc2ccc(O)cc2c1-c1ccc(OC(F)(F)F)cc1` [Compound 5r] was tested. Which ERβ antagonism did it give?
Answer: ++ (>40%: ++)

Question: `Oc1ccc2c(c1)Cc1c-2cc2ccc(O)cc2c1-c1cccc(C(F)(F)F)c1` [Compound 5d] was tested. Which ERβ antagonism did it give?
Answer: + (>5% (relative to ICI): +)

Question: `Oc1ccc2c(c1)Cc1c-2cc2ccc(O)cc2c1-c1ccc2ccccc2c1` [Compound 5b] was tested. Which ERβ antagonism did it give?
Answer: + (>5% (relative to ICI): +)

Question: Which ERβ antagonism does the source give for `Cc1cccc(-c2c3c(cc4ccc(O)cc24)-c2ccc(O)cc2C3)c1` [Compound 5p] here?
Answer: + (>5% (relative to ICI): +)

Question: `Oc1ccc2c(c1)Cc1c-2cc2ccc(O)cc2c1-c1ccc2c(c1)OCO2` [Compound 5g] was tested. Which ERβ antagonism did it give?
Answer: + (>5% (relative to ICI): +)

Question: How did the ERβ antagonism turn out when `Oc1ccc2c(c1)Cc1c-2cc2ccc(O)cc2c1-c1ccccc1` [Compound 5v] was run?
Answer: + (>5% (relative to ICI): +)

Question: How did the ERβ antagonism turn out when `COc1cccc(-c2c3c(cc4ccc(O)cc24)-c2ccc(O)cc2C3)c1` [Compound 5c] was run?
Answer: + (>5% (relative to ICI): +)

Question: With `Cc1ccc(-c2c3c(cc4ccc(O)cc24)-c2ccc(O)cc2C3)cc1` [Compound 5e] as the molecule, how does the ERβ antagonism read?
Answer: ++ (>40%: ++)

Question: With `Oc1ccc2c(c1)Cc1c-2cc2ccc(O)cc2c1-c1ccccc1C(F)(F)F` [Compound 5u] as the molecule, how does the ERβ antagonism read?
Answer: ++ (>40%: ++)

Question: Which ERβ antagonism does the source give for `Oc1ccc2c(c1)Cc1c-2cc2ccc(O)cc2c1-c1ccc(C(F)(F)F)cc1` [Compound 5o] here?
Answer: + (>5% (relative to ICI): +)
